Experimental data reported in patent US12667560B2, “Co-administration of mirdametinib and lifirafenib for use in treating cancers” (BeiGene, Ltd., priority 2020, dated 2026).
Where a name gives a salt, the structure may show the parent alone.

Test system: subcutaneous Calu-6 tumors which harbor a K-RAS mutation
Test: Efficacy study in Calu-6 K-RAS mutated human xenograft lung adenocarcinoma model
Type: in vivo, Balb/c nude mice
Conditions: Compound B maleate alone, 2.5 mg/kg (free base) p.o. BID, Group 2
Description: To determine the effects of Compound B Maleate and Compound A, alone or in combination, on growth of subcutaneous Calu-6 tumors which harbor a K-RAS mutation in Balb/c nude mice in an Efficacy Study.
Experimental designs for the Efficacy study are illustrated in Table 2.
Each mouse was inoculated subcutaneously at the right flank with Calu-6 tumor cells (5×10^6 cells in 0.1 ml 50% Matrigel® in MEM). Tubes containing suspended cells and syringes were kept on ice to avoid solidification of Matrigel®. 2× overage was implemented for cell injection. When mean tumor volume reached the indicated sizes in Table 2, animals were randomly assigned to the indicated groups in Table 2 and received the first dosing. […]
Tumor volumes and mouse body weights were measured three times weekly after tumors became palpable and before randomization and grouping. Afterwards, tumor volumes and mouse body weights were measured twice weekly to termination, in two dimensions using a caliper, and the tumor volumes were expressed in mm^3 using the formula: V=0.5 L×W^2, where L and W were the long and short diameters of the tumor, respectively. The TGI value for the drug A-treated group at Day X was calculated as following: TGI (%)={1−[mTV(drug at Day X)−mTV(drug at Day 0)]/[mTV(veh at Day X)−mTV(veh at Day 0)]}×100, where mTV represented mean tumor volume. […]

O=C1CCc2c(Oc3ccc4c(c3)[C@@H]3[C@H](C4)[C@H]3c3nc4ccc(C(F)(F)F)cc4[nH]3)ccnc2N1 [Compound B maleate]
inhibition of Calu-6 tumor growth compared to the vehicle control: significant inhibition
